# Patent US20100280031A1, “LIPID FORMULATION OF APOPTOSIS PROMOTER” (priority 2009, published 2010)
# Read-outs that look alike come from different tables or passages of the source.
# Tests used:
# [1] = PK study of ABT-263 bis-HCl liquid-filled capsules in non-fasted dogs; assay type: in vivo, beagle dogs
# solubility in water = details: pH 2
# From the text: It will be recognized that aqueous solubility of many compounds is pH-dependent; in the case of such compounds the solubility of interest herein is at a physiologically relevant pH, for example a pH of about 1 to about 8.
# [2] = PK study of ABT-263 free base formulations in rats; assay type: in vivo, Sprague-Dawley rats; details: fasted rats, 5 mg/kg oral
# Procedure: (§1) Serial heparinized blood samples were obtained from a tail vein of each animal prior to dosing and 0.25, 0.5, 1, 1.5, 2, 3, 4, 6, 8 and 24 hours after administration.
# [3] = PK study of ABT-263 free base formulations in fasted dogs; assay type: in vivo, beagle dogs; details: oral
# Procedure: Serial heparinized blood samples were obtained from a jugular vein of each animal prior to dosing and 0.25, 0.5, 1, 1.5, 2, 3, 4, 6, 9, 12, 15 and 24 hours after administration. […] The bioavailability was calculated as the dose-normalized AUC0-∞ from oral dosing divided by the corresponding value derived from i.v. (intravenous) dosing, administered as a slow bolus to a cephalic vein.
# [4] = food-effect PK study of ABT-263 free base formulation in dogs; assay type: in vivo, beagle dogs; details: 10 mg/kg oral, 20 mg/ml, carrier PEG 400/Phosal 50 PG/DMSO (60:30:10)
# [5] = PK study of ABT-263 free base liquid-filled capsules in non-fasted dogs; assay type: in vivo, beagle dogs
# [6] = Phase 1 clinical PK study of ABT-263 bis-HCl formulation (Formulation C); assay type: in vivo, human; details: humans
# Procedure: The formulation was prepared immediately or shortly (not more than about one month) prior to oral administration.
# The study had several cycles, depending on the subjects' response to the drug.
# The dose doubled until one grade 3 or two grade 2 toxicities occurred, after which dose escalated in 25-40% increments. Platelet levels were monitored and reviewed to inform dose escalation decisions.
# Blood and plasma samples were protected from direct sunlight during collection, processing and storage. The timing of blood collections took priority over other scheduled study activities except for dosing. The order of blood collections was maintained to the minute such that the time intervals relative to the preceding dosing were the same for all subjects.
# Blood samples were collected by venipuncture into 3-ml evacuated potassium EDTA-containing collection tubes during Cycle 1 Day −3, prior to dosing (0 hour) and at 0.5, 1, 2, 3, 4, 6, 8, 24, 48 and 72 (Day 1, predose sample) hours after dosing; Day 1, at 0.5, 1, 2, 3, 4, 6, 8 and 24 (Day 2, pre-dose sample) hours after dosing; Day 14, prior to dosing (0 hour) and at 0.5, 1, 2, 3, 4, 6 and 8 hours after dosing. Additional blood samples were collected at 0 hour (pre-dose) on Day 14, Cycle 2 through Cycle 6. Sufficient blood was collected to provide approximately 1 ml plasma from each sample. A total of 27 blood samples (approximately 81 ml) were collected per subject for pharmacokinetic analysis during Cycle 1 and one additional blood sample per subject per cycle, up to Cycle 6.
# [7] = PK study of ABT-737 formulations in rats; assay type: in vivo, Sprague-Dawley rats; details: for AUC(0-inf) / bioavailability / Cmax: rats, 5 mg/kg oral; for bioavailability: read-out: Bioavailability (F %)
# Procedure: as §1
# Analysis was performed on a Sciex API3000™ biomolecular mass analyzer with a heated nebulizer interface. ABT-737 and internal standard peak areas were determined using Sciex MacQuan™ software. The plasma drug concentration of each sample was calculated by least squares linear regression analysis (non-weighted) of the peak area ratio (parent/internal standard) of the spiked plasma standards versus concentration. The plasma concentration data were submitted to multi-exponential curve fitting using WinNonlin 3 (Pharsight).
# The area under the plasma concentration-time curve from 0 to t hours (time of the last measured plasma concentration) after dosing (AUC0-t) was calculated using the linear trapezoidal rule for the plasma concentration-time profiles. The residual area extrapolated to infinity, determined as the final measured plasma concentration (Ct) divided by the terminal elimination rate constant (β), was added to AUC0-t to produce the total area under the curve (AUC0-∞). The bioavailability was calculated as the dose-normalized AUC0-∞ from oral dosing divided by the corresponding value derived from i.v. (intravenous) dosing, administered as a slow bolus to a jugular vein under light ether anesthetic.
# [8] = carrier Labrasol/Tween 20 (70:30), 50 mg/dog
# [9] = carrier Phosal 53 MCT, 50 mg/dog
# [10] = carrier Phosal 53 MCT/Labrasol (70:30), 50 mg/dog
# [11] = carrier Phosal 53 MCT/Tween 20 (80:20), 50 mg/dog
# [12] = carrier PEG 400/DMSO (90:10), 2 mg/ml
# [13] = carrier PEG 400/Phosal 50 PG/DMSO (60:30:10), 5 mg/ml
# [14] = carrier PEG 400/DMSO (90:10), 2.5 mg/kg, 5 mg/ml
# [15] = carrier PEG 400/DMSO (90:10), 5 mg/kg, 10 mg/ml
# [16] = carrier PEG 400/DMSO (90:10), 10 mg/kg, 20 mg/ml
# [17] = carrier PEG 400/Phosal 50 PG/DMSO (60:30:10), 5 mg/kg, 10 mg/ml
# [18] = carrier PEG 400/Phosal 50 PG/DMSO (60:30:10), 10 mg/kg, 20 mg/ml
# [19] = liquid-filled capsules, carrier Capmul PG-8, 50 mg/dog
# [20] = liquid-filled capsules, carrier Capmul PG-8/Cremophor EL (90:10), 50 mg/dog
# [21] = liquid-filled capsules, carrier Phosal 53 MCT/PEG 400 (70:30), 50 mg/dog
# [22] = liquid-filled capsules, carrier oleic acid/PEG 400/Cremophor EL (80:10:10), 50 mg/dog
# [23] = oral, carrier PEG 400/Phosal 50 PG/DMSO (60:30:10), 20 mg/kg
# [24] = 315 mg/day, Day 14, non-fasting
# [25] = Sprague-Dawley, rat, plasma, po, 5 mg/kg, carrier D5W/PG/DMSO/Tween (70:20:5:5), 5 mg/ml
# [26] = Sprague-Dawley, rat, plasma, po, 5 mg/kg, carrier Imwitor 380 (unneutralized)/ethanol (95:5), 10 mg/ml
# [27] = Sprague-Dawley, rat, plasma, po, 5 mg/kg, carrier Phosal 50 PG/ethanol (90:10), 50 mg/ml
# [28] = Sprague-Dawley, rat, plasma, po, 5 mg/kg, carrier Phosal 53 MCT/ethanol (90:10), 10 mg/ml
smiles,measurement,setting,value
CC1(C)CCC(c2ccc(Cl)cc2)=C(CN2CCN(c3ccc(C(=O)NS(=O)(=O)c4ccc(N[C@H](CCN5CCOCC5)CSc5ccccc5)c(S(=O)(=O)C(F)(F)F)c4)cc3)CC2)C1.Cl.Cl [ABT-263 bis-HCl],Bioavailability (F %),"[1]; carrier Labrasol, […]",29.4%
same,AUC0-∞,[1]; [8],84.8 µg·h/mL
same,Bioavailability (F %),[1]; [8],39.0%
same,Cmax,[1]; [8],10.31 µg/mL
same,AUC0-∞,[1]; [9],89.7 µg·h/mL
same,Bioavailability (F %),[1]; [9],49.0%
same,Cmax,[1]; [9],9.25 µg/mL
same,AUC0-∞,[1]; [10],94.3 µg·h/mL
same,Bioavailability (F %),[1]; [10],38.5%
same,Cmax,[1]; [10],15.83 µg/mL
same,Bioavailability (F %),"[1]; carrier Phosal 53 MCT/PEG 400 (70:30), […]",40.8%
same,AUC0-∞,[1]; [11],89.9 µg·h/mL
same,Bioavailability (F %),[1]; [11],48.5%
same,Cmax,[1]; [11],14.02 µg/mL
CC1(C)CCC(c2ccc(Cl)cc2)=C(CN2CCN(c3ccc(C(=O)NS(=O)(=O)c4ccc(N[C@H](CCN5CCOCC5)CSc5ccccc5)c(S(=O)(=O)C(F)(F)F)c4)cc3)CC2)C1 [ABT-263],solubility in water,solubility in water,less than 4 μg/ml
same,AUC0-∞,[2]; [12],7.53 µg·h/mL
same,Bioavailability (F %),[2]; [12],21.6%
same,Cmax,[2]; [12],0.67 µg/mL
same,AUC0-∞,[2]; [13],9.96 µg·h/mL
same,Bioavailability (F %),[2]; [13],28.5%
same,Cmax,[2]; [13],1.05 µg/mL
same,AUC0-∞,[3]; [14],27.1 µg·h/mL
same,Cmax,[3]; [14],3.67 µg/mL
same,AUC0-∞,[3]; [15],39.8 µg·h/mL
same,Bioavailability (F %),[3]; [15],16.5%
same,Cmax,[3]; [15],6.75 µg/mL
same,AUC0-∞,[3]; [16],58.3 µg·h/mL
same,Bioavailability (F %),[3]; [16],12.1%
same,Cmax,[3]; [16],8.46 µg/mL
same,AUC0-∞,[3]; [17],115.1 µg·h/mL
same,Cmax,[3]; [17],13.22 µg/mL
same,AUC0-∞,[3]; [18],173.9 µg·h/mL
same,Bioavailability (F %),[3]; [18],36.0%
same,Cmax,[3]; [18],21.6 µg/mL
same,AUC0-∞,[4]; fasted dogs,156.1 µg·h/mL
same,Cmax,[4]; fasted dogs,20.3 µg/mL
same,Bioavailability (F %),"[4]; fasted dogs, 10 mg/kg",32.3%
same,AUC0-∞,[4]; non-fasted dogs,255.6 µg·h/mL
same,Bioavailability (F %),[4]; non-fasted dogs,52.9%
same,Cmax,[4]; non-fasted dogs,23.5 µg/mL
same,AUC0-∞,[5]; [19],59.1 µg·h/mL
same,Bioavailability (F %),[5]; [19],24.9%
same,Cmax,[5]; [19],6.40 µg/mL
same,AUC0-∞,[5]; [20],63.3 µg·h/mL
same,Bioavailability (F %),[5]; [20],27.7%
same,Cmax,[5]; [20],10.61 µg/mL
same,AUC0-∞,[5]; [21],119.8 µg·h/mL
same,Bioavailability (F %),[5]; [21],53.0%
same,Cmax,[5]; [21],21.5 µg/mL
same,AUC0-∞,[5]; [22],43.8 µg·h/mL
same,Bioavailability (F %),[5]; [22],20.5%
same,Cmax,[5]; [22],6.84 µg/mL
same,AUC0-∞,[5]; [23],537.2 µg·h/mL
same,Bioavailability (F %),[5]; [23],51.3%
same,Cmax,[5]; [23],47.3 µg/mL
same,plasma concentration at steady state (peak),[6]; [24],about 5.5 μg/ml
same,plasma concentration at steady state (trough),[6]; [24],about 3 μg/ml
same,Tmax,"[6]; single 315 mg dose, both fasting and non-fasting (FIG. 2)",around 8 hours
"CN(C)CC[C@H](CSc1ccccc1)Nc1ccc(S(=O)(=O)NC(=O)c2ccc(N3CCN(Cc4ccccc4-c4ccc(Cl)cc4)CC3)cc2)cc1[N+](=O)[O-] [ABT-737, N-(4-(4-((4′-chloro-(1,1′-biphenyl)-2-yl)methyl)piperazin-1-yl)benzoyl)-4-(((1R)-3-(dimethylamino)-1-((phenylsulfanyl)methyl)propyl)amino)-3-nitrobenzene-sulfonamide]",AUC(0-inf),[7]; [25],230 ng·h/mL
same,bioavailability,[7]; [25],5.9%
same,AUC(0-inf),[7]; [26],150 ng·h/mL
same,bioavailability,[7]; [26],3.9%
same,Cmax,"[7]; Sprague-Dawley, rat, plasma, po, 5 mg/kg, carrier Imwitor 380 (unneutralized)/ethanol (95:5), 10 mg/ml, read-out: Cmax",29 ng/mL
same,AUC(0-inf),[7]; [27],60 ng·h/mL
same,bioavailability,[7]; [27],1.5%
same,Cmax,"[7]; Sprague-Dawley, rat, plasma, po, 5 mg/kg, carrier Phosal 50 PG/ethanol (90:10), 50 mg/ml, read-out: Cmax",24 ng/mL
same,AUC(0-inf),[7]; [28],130 ng·h/mL
same,bioavailability,[7]; [28],3.3%
same,Cmax,"[7]; Sprague-Dawley, rat, plasma, po, 5 mg/kg, carrier Phosal 53 MCT/ethanol (90:10), 10 mg/ml, read-out: Cmax",28 ng/mL
same,Cmax,"[7]; carrier D5W/PG/DMSO/Tween (70:20:5:5), 5 mg/ml",32 ng/mL
same,Bioavailability in rats,[7]; regardless of the carrier,extremely low
